Experimental findings from patent US20120142763A1, “NUCLEIC ACID DELIVERY COMPOSITIONS AND METHODS OF USE THEREOF” (THE REGENTS OF THE UNIVERSITY OF CALIFORNIA, priority 2009, published 2012) are described below.

Like-named read-outs stand apart in the source and are kept apart here.

A short description of series [1]: Solubility of charge-protected oligonucleotide in salt solution. The series is classed as physicochemical.

For “SEQ ID NO:23: RNAi against GFP comprising SEQ ID NO:23 having N1-U-SATE nucleotides; 21 mer charge-protected oligonucleotide (CCACUACCUGAGCACCCAGTTTUGGUGAUGGACUCGUGGGUC; contains N1-U-SATE charge-protected nucleotides, positions not given here)”, in series [1], the “solubility in salt solution” value was “soluble in salt solution”. Further, the “inhibition of expression of GFP (dose response curves)” value in the series with GFP (at 24 hours) and with GFP (at 48 hours) was “inhibition of expression of GFP” throughout.
